From publication PMC4326489, “Efficacy and pharmacokinetic evaluation of a novel anti-malarial compound (NP046) in a mouse model” (Malaria Journal, 2015)

Columns and labels:
[1] = Stability in whole blood (long term, freeze and thaw, on bench); assay type: in vitro ADME, human; settings: for Long term stability, mean concentration found: -80°C, 92 days; for On bench stability, mean concentration found: on bench 3.3 hours
Method: Owing to the scarcity of mouse blood, the assay was developed and validated using human whole blood and then cross validated with mice whole blood to ensure that the same results were obtained in the same matrix of both species. NP046 was stable for 100 days in stock solutions of methanol and acetonitrile when stored at room temperature and -20 °C. It was stable in whole blood on bench for 3.3 hours while waiting for extraction, and was stable after three freeze-thaw cycles too.

[2] = Plasma protein binding by ultracentrifugation; assay type: in vitro ADME; settings: read-out: PPB (plasma protein binding) (converted)
Method: In this study, since the NSB > 5%, ultracentrifugation was used to assess the PPB property of NP046 [for the methodology see Additional file 3]. […] Procedure for the determination of PPB by Ultracentrifugation (procedure was adopted from Barré et al., 1985; with a slight modification). Thaw plasma aliquots in a water bath at 22 °C. Centrifuge plasma aliquots at 2000 g for 5 minutes, and decant and pool the supernatant. Prepare plasma and PBS samples at a high concentration (1000 ng/ml), and low concentration (10 ng/ml) for all the test compounds under investigation. The PBS samples were used to determine the response of the unbound (or free) drug, and were not subjected to ultracentrifugation. Plasma samples were incubated at 37 °C in a water bath for 20minutes to allow samples to reach physiological temperature, and then the samples were aliquoted into BECKMAN Quick-Seal centrifuge tubes (13 ml). Ultracentrifuge plasma samples at 2 x 10^5 g for 6 hours at 37 °C using BECKMAN L8-[…] ultracentrifuge (80Ti). The supernatant was extracted, and its response was compared with that of the PBS extract after being analysed by the validated LC-MS/MS bioanalytical drug assay methods stated in chapters 8 and 9. PPB% was calculated using the equation: Where T = total drug concentration; and F = free drug concentration.

[3] = Non-specific binding to the micro-partition device (ultrafiltration); assay type: in vitro ADME; settings: PBS pH 7.4
Method: PPB (plasma protein binding), the extent to which a drug binds to protein in plasma, can affect the PK-PD properties of a drug. Thus, determining the PPB property of a drug in the early stage of drug development process is crucial and a prerequisite for lead prioritization. Initially the PPB assay was performed using an ultrafiltration method [see Additional file 3], which depends on centrifugal force to move the unbound analyte of interest through a size-selective membrane. Ultrafiltration is recommended for the determination of PPB property if the non-specific binding (NSB) of the test drug to the micro-partition device is less than 5%. If NSB > 5%, an alternative technique such as equilibrium dialysis or ultracentrifugation should be used.
Procedure for the determination of nonspecific binding by Ultrafiltration (procedure was adopted from Dow, 2002; with a slight modification).
0.01 M PBS, pH 7.4, was prepared by dissolving 4 g of NaCl, 0.1 g of KCl, 0.722 g of Na2HPO4, and 0.12 g of KH2PO4 with water to a final volume of 500 ml.
Primary stock solutions of TK900D, TK900E, and NP046 at 100 µg/ml; and secondary stock solutions at 1 µg/ml in methanol were prepared. […]
The ultrafiltrate were extracted and analysed quantitatively using the validated LC-MS/MS bioanalytical drug assay methods specified in Chapters 8 and 9.
The %NSB were calculated using the equation: […]

Caco-2 cell line = experiment: Caco-2 permeability, apical to basolateral drug transport assay; assay type: in vitro ADME, human; settings: transport buffer pH 7.4, LC-MS/MS, experiment repeated with same result
From the text: Permeability is the speed/velocity and extent to which a drug passes through a biological membrane obstacle in a living system, such as the gastrointestinal (GI) epithelial cells, the blood capillary wall, the target cell membrane. The Caco-2 cell line (a continuous line of heterogeneous human epithelial colorectal adenocarcinoma cells), the most widely used and recognized as a model of the intestinal barrier was used to determine the in vitro permeability of NP046 [for the methodology see Additional file 6]. The transport of each drug from the apical side to the basolateral side was done using a transport buffer that consisted of Hank’s Balanced Salt Solution (HBSS) + 10 mM HEPES + […] NaHCO3, pH 7.4 (1:100 1 M HEPES in HBSS). The drug transport assay was performed by determining the concentrations of the test compound from the basolateral chamber, using an LC-MS/MS assay. […] Therefore, the experiment was repeated and the same result was obtained. This could be due to the following reasons: IVc. Drug transport assay: The monolayer was rinsed with HBSS Test compounds (200 µl) was added into the apical chambers of the monolayers inserted in a plate containing 600 µl HBSS The plate was placed in a water bath with orbital shaker (60 rpm) for 2 hours at 37 °C Fifty micro litters of the solution were removed from the apical and basolateral wells and analysed using LC-MS method.

[4] = Analyte stock solution stability; assay type: physicochemical; settings: 100 days; for Analyte stock solution stability, % Reference: vs fresh
Method: NP046 was stable for 100 days in stock solutions of methanol and acetonitrile when stored at room temperature and -20 °C. It was stable in whole blood on bench for 3.3 hours while waiting for extraction, and was stable after three freeze-thaw cycles too.

[5] = whole blood, nominal High (799.9)
[6] = whole blood, nominal Low (4.999)

Oc1cc(CCCc2ccc(F)cc2)ccc1CN1CCCCC1 [NP046, 5-(3-(4-fluorophenyl)propyl)-2-(piperidin-1-ylmethyl)phenol]
stability in whole blood on bench ([1]; 3.3 hours while waiting for extraction): stable | long term matrix stability ([1]; whole blood at -80°C for 92 days): stable | Long term stability, mean concentration found [1, 5]: 732. ng/ml | Long term stability, mean concentration found [1, 6]: 5.081 ng/mL | On bench stability, mean concentration found [1, 5]: 716.9 ng/mL | On bench stability, mean concentration found [1, 6]: 5.370 ng/mL | stability after freeze-thaw cycles ([1]; whole blood, three freeze-thaw cycles): stable | Freeze and thaw stability, mean concentration found ([1]; whole blood, three freeze-thaw cycles, nominal High (799.9)): 718.6 ng/mL | Freeze and thaw stability, mean concentration found ([1]; whole blood, three freeze-thaw cycles, nominal Low (4.999)): 5.037 ng/mL | fraction unbound at 6 h, 10 ng/ml ([2]; at 10 ng/ml): 0.797 | fraction unbound at 6 h, 1000 ng/ml ([2]; at 1000 ng/ml): 0.72 | NSB (non-specific binding to the micro-partition device) [3]: > 5% | test compound found in the basolateral chamber (apical to basolateral transport) (Caco-2 cell line): no quantifiable amount | Analyte stock solution stability, % Reference ([4]; in acetonitrile, room temperature): 102.1% | Analyte stock solution stability, % Reference ([4]; in acetonitrile, ~ 5°C): 83.1% | Analyte stock solution stability, % Reference ([4]; in acetonitrile, ~ -20°C): 99.9% | Analyte stock solution stability, % Reference ([4]; in methanol, room temperature): 93.7% | Analyte stock solution stability, % Reference ([4]; in methanol, ~ 5°C): 87.8% | Analyte stock solution stability, % Reference ([4]; in methanol, ~ -20°C): 94.3% | stability in stock solutions ([4]; methanol and acetonitrile, room temperature and -20°C): stable
